The record followed here is patent publication US20240398813A1, “PHARMACEUTICAL COMPOSITION FOR PREVENTING OR TREATING OVERACTIVE BLADDER” (GWANGJU INSTITUTE OF SCIENCE AND TECHNOLOGY, priority 2021, published 2024).

This experiment has as its target T1, hyperactive mutant BKCa channels (hSlo G803D/N806K) stably expressed in AD 293 cells (Homo sapiens, UniProt Q12791, G856D/N859K).
T1 construct: expressed in transfected cells
Description: Cell-based fluorescence assay (FluxOR Potassium Ion Channel Assay) of BKCa channel activation. The arrangement: key to Channel activity increase for 80 s (ΔRFU) at 6 μM: ratio of ΔRFU (RFU at 100 s − 20 s) to the same ΔRFU for vehicle. The note with it: for Initial velocity of channel activation for 4 s (vi) at 6 μM: first 4 s after channel stimulation; for Channel activity increase for 80 s (ΔRFU) at 6 μM: normalized by vehicle; for EC50: fit of dose-response curve of initial rates, read-out: Apparent EC50 based on vi. As to the method: AD 293 cells, which are derivatives of the commonly used HEK 293 cell line and stably express hyperactive mutant BKCa channels (hSlo G803D/N806K) to sensitively detect the effect (Lee et al., 2013), were cultured in Dulbecco' modified Eagle medium (Hyclone, Logan, Utah, […]) supplemented with 10% fetal bovine serum, and selected with 1 mg/mL Geneticin (Gibco, Amarillo, TX, USA). 20,000 cells per well were seeded on a 96-well clear-bottom black plate (Corning, New York, NY, USA) coated with poly-D-lysine (Gibco). BKCa channel activity was measured using the cell-based fluorescence assay, FluxOR Potassium Ion Channel Assay (Thermo Fisher Scientific, Waltham, MA, USA). Experimental procedures were performed according to the manufacturer's instructions. The cells were treated with test compounds dissolved in assay buffer for 15 minutes. Fluorescence was measured using a FlexStation3 multimode microplate reader (Molecular Devices, Silicon Valley, CA, USA) and SoftMax Pro (Molecular Devices). Excitation and emission wavelengths were set to 485 nm and 528 nm, respectively. Fluorescence signals were acquired every 2 seconds for 120 seconds and normalized by the relative fluorescence unit (RFU). The efficacy of a channel activator was determined by analyzing changes (ΔRFU) in the RFU for 80 seconds after channel stimulation.
Activation effects of the synthesized compounds on BKCa channels were evaluated using cell-based fluorescence assay. NS11021 was used as the positive control. The effects were determined based on the initial rate (vi) of channel activation and the apparent EC50 value obtained from fitting data of the dose-response curve. Here, Vi means change values for 4 seconds at the start of channel opening (vi={RFU(t=24 s)−RFU(t=20 s)}/4 s). […]

T1 sequence (Q12791 whole entry G856D/N859K): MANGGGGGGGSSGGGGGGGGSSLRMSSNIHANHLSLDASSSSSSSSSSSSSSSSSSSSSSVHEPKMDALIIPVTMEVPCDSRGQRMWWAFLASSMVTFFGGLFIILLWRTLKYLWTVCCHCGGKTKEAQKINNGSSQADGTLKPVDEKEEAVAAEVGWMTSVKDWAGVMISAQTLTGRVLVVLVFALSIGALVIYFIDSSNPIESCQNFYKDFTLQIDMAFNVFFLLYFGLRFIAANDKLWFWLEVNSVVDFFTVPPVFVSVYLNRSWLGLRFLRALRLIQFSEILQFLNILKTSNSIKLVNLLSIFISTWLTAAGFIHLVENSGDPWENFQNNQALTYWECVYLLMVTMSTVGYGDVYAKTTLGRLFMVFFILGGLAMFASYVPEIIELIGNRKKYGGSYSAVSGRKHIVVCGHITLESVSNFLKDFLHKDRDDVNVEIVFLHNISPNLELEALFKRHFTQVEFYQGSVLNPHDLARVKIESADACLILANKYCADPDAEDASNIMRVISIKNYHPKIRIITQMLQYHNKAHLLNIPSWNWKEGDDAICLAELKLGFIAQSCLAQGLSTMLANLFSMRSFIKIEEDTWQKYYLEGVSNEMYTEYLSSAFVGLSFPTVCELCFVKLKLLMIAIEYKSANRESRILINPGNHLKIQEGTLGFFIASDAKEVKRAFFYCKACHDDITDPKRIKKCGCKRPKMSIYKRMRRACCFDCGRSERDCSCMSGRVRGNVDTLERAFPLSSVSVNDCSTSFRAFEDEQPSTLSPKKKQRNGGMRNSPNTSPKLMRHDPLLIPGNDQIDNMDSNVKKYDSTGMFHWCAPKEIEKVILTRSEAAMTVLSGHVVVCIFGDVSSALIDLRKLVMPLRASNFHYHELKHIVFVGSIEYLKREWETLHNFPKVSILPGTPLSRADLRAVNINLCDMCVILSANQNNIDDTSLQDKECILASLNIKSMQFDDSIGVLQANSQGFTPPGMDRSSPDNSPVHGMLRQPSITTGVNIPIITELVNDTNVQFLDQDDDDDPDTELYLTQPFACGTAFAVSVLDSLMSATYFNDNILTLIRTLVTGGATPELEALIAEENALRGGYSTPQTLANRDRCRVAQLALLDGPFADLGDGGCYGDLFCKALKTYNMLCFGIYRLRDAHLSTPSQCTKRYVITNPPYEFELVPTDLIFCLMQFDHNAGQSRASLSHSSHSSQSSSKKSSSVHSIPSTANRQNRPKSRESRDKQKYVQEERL

Usually EC50 stands for the concentration at which the effect is half-maximal. With `O=C(O)c1sc(=S)n2c1[nH]c(=O)c1ccccc12` [Compound 3, 5-oxo-1-thioxo-4,5-dihydro-1H-thiazolo[3,4-a]quinazoline-3-carboxylic acid], the “Initial velocity of channel activation for 4 s (vi) at 6 μM” value (shortened to “Initial velocity of channel activation”) worked out at 0.38 s⁻¹, the “Channel activity increase for 80 s (ΔRFU) at 6 μM” value came to 1.38 and the half-maximal effective concentration (EC50) stood at 12.7 µM.

In the case of `NC(=O)c1sc(=S)n2c1[nH]c(=O)c1ccccc12` [Compound 4, 5-oxo-1-thioxo-4,5-dihydro-1H-thiazolo[3,4-a]quinazoline-3-carboxamide], the “Initial velocity of channel activation” value came out at 0.32 s⁻¹ and the “Channel activity increase for 80 s (ΔRFU) at 6 μM” value stood at 0.96.

As to `O=C(NCc1ccccc1)c1sc(=S)n2c1[nH]c(=O)c1ccccc12` [Compound 5, N-benzyl-5-oxo-1-thioxo-4,5-dihydro-1H-thiazolo[3,4-a]quinazoline-3-carboxamide], the “Initial velocity of channel activation” value worked out at 0.26 s⁻¹ and the “Channel activity increase for 80 s (ΔRFU) at 6 μM” value came out at 1.10.

In the case of `O=C(Nc1ccccc1)c1sc(=S)n2c1[nH]c(=O)c1ccccc12` [Compound 101, 5-oxo-N-phenyl-1-thioxo-4,5-dihydro-1H-thiazolo[3,4-a]quinazoline-3-carboxamide], the “Initial velocity of channel activation” value amounted to 0.42 s⁻¹ and the “Channel activity increase for 80 s (ΔRFU) at 6 μM” value is on record as 1.03.

Take `Cc1ccc2c(=O)[nH]c3c(C(=O)Nc4ccccc4)sc(=S)n3c2c1` [Compound 102, 8-methyl-5-oxo-N-phenyl-1-thioxo-4,5-dihydro-1H-thiazolo[3,4-a]quinazoline-3-carboxamide]: the “Initial velocity of channel activation” value was determined as 0.23 s⁻¹ and the “Channel activity increase for 80 s (ΔRFU) at 6 μM” value is 1.06.

On to `O=C(Nc1ccccc1)c1sc(=S)n2c1[nH]c(=O)c1ccc(Cl)cc12` [Compound 103, 8-chloro-5-oxo-N-phenyl-1-thioxo-4,5-dihydro-1H-thiazolo[3,4-a]quinazoline-3-carboxamide], for which the “Channel activity increase for 80 s (ΔRFU) at 6 μM” value was found to be 1.56.

Consider `O=C(Nc1ccccc1)c1sc(=S)n2c1[nH]c(=O)c1ccc(Br)cc12` [Compound 104, 8-bromo-5-oxo-N-phenyl-1-thioxo-4,5-dihydro-1H-thiazolo[3,4-a]quinazoline-3-carboxamide], for which the “Channel activity increase for 80 s (ΔRFU) at 6 μM” value is 1.25.

`Cc1ccc2c(c1)c(=O)[nH]c1c(C(=O)Nc3ccccc3)sc(=S)n12` [Compound 105, 7-methyl-5-oxo-N-phenyl-1-thioxo-4,5-dihydro-1H-thiazolo[3,4-a]quinazoline-3-carboxamide]: the “Initial velocity of channel activation” value was 0.32 s⁻¹ and the “Channel activity increase for 80 s (ΔRFU) at 6 μM” value worked out at 1.16.

As for `O=C(Nc1ccccc1)c1sc(=S)n2c1[nH]c(=O)c1cc(Cl)ccc12` [Compound 106, 7-chloro-5-oxo-N-phenyl-1-thioxo-4,5-dihydro-1H-thiazolo[3,4-a]quinazoline-3-carboxamide], the “Initial velocity of channel activation” value stood at 0.38 s⁻¹ and the “Channel activity increase for 80 s (ΔRFU) at 6 μM” value is 1.18.

For `O=C(Nc1ccccc1)c1sc(=S)n2c1[nH]c(=O)c1cc(Br)ccc12` [Compound 107, 7-bromo-5-oxo-N-phenyl-1-thioxo-4,5-dihydro-1H-thiazolo[3,4-a]quinazoline-3-carboxamide], the “Initial velocity of channel activation” value came out at 5.51 s⁻¹, the “Channel activity increase for 80 s (ΔRFU) at 6 μM” value amounted to 3.83 and the 50% effective concentration (EC50) turned out to be 12.3 µM.

On to `Cc1ccccc1NC(=O)c1sc(=S)n2c1[nH]c(=O)c1cc(Br)ccc12` [Compound 201, 7-bromo-5-oxo-1-thioxo-N-(o-tolyl)-4,5-dihydro-1H-thiazolo[3,4-a]quinazoline-3-carboxamide], for which the “Initial velocity of channel activation” value turned out to be 9.40 s⁻¹, the “Channel activity increase for 80 s (ΔRFU) at 6 μM” value came out at 3.68 and the 50% effective concentration (EC50) was determined as 4.6 µM.
